Here are results for 35 molecules from US11008340B2, “Modulators of ROR-gamma” (Vitae Pharmaceuticals, LLC, priority 2015, dated 2021).

Read-outs that look alike come from different tables or passages of the source. A value given as a limit tells only on which side of the number the result lay.

For this assay, the target named is T1, recombinant RORγ Ligand Binding Domain (LBD) protein (Homo sapiens, UniProt P51449).
T1 construct: 6×His; GST
T1 sequence (P51449 269-508 limits assumed): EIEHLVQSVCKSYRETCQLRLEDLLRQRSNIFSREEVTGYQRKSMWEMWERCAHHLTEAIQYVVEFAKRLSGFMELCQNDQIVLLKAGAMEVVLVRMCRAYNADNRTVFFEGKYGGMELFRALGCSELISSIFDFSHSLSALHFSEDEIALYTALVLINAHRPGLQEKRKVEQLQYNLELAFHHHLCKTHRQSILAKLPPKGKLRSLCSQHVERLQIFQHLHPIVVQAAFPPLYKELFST
Briefly: Radio-Ligand RORγ Binding Assay (Assay 1). The note with it: read-out: Avg ROR Bind Ki. How it is done: Radio-Ligand RORγ Binding Assay (Assay 1)
Compounds described herein were tested for ability to bind to RORγ in a cell-free competition assay with commercially available radio-ligand (RL), 25-hydroxy [26,27-^3H]-cholesterol (PerkinElmer, Cat. #NET674250UC), for a ligand binding site on a recombinant RORγ Ligand Binding Domain (LBD) protein expressed as a 6×His-Glutathione-S-Transferase (GST) fusion. The assay was performed in 96-well SPA plates (PerkinElmer, Cat. #1450-401) in 50 mM HEPES buffer, pH 7.4, containing 150 mM NaCl, 5 mM MgCl2, 10% (v/v) glycerol, 2 mM CHAPS, 0.5 mM 3-octylglucopyranoside and 5 mM DTT. Tested compounds were dissolved in DMSO, and semi-log (3.162×) serial dilutions of the compounds were prepared in the same solvent. Two μL of the DMSO solutions were mixed with 28 μL of 8.6 nM 25-hydroxy [26,27-^3H]-cholesterol and 50 μL of 24 nM RORγ LBD. The plate was shaken at 700 rpm for 20 min and incubated for 10 min at rt, after which 40 μL of poly-Lys YSi SPA beads (PerkinElmer, Cat. #RPNQ0010) were added to achieve 50 μg of the beads per well. The plate was incubated on an orbital shaker for 20 min and then for 10 min without agitation at rt. SPA signal for tritium beta radiation was registered on PerkinElmer Microbeta plate reader. […] The percent inhibition vs. concentration data were fit into a four-parameter model, and IC50 values were calculated from the fit as the concentrations corresponding to the inflection points on the dose-response curves. Inhibitory constants (Ki) were calculated using the following equation, where [RL] is the concentration in the assay and KD is a dissociation constant of 25-hydroxy [26,27-^3H]-cholesterol: […]

The mark [1] stands for this setting: radio-ligand competition, 25-hydroxy [26,27-3H]-cholesterol, RORγ LBD.
Where [2] appears, read: radio-ligand competition, RORγ LBD, head without unit (Tables 15, 17).

On to `CCS(=O)(=O)c1ccc([C@H](CO)NC(=O)c2ccc3c(OC[C@H]4CC[C@H](C(F)(F)F)CC4)ncnc3c2)cc1` [Hy1C-1, N-((R)-1-(4-(ethylsulfonyl)phenyl)-2-hydroxyethyl)-4-(((1r,4R)-4-(trifluoromethyl)cyclohexyl)methoxy)quinazoline-7-carboxamide], for which, where the note is “competition with 25-hydroxy [26,27-3H]-cholesterol, SPA, class symbols”, the Ki is 100 to 1000 nM.

For `CC[C@H]1CN(c2ncc(C(F)(F)F)cn2)Cc2cc(C(=O)N[C@@H](CO)c3ccc(S(=O)(=O)CC)cn3)ccc21` (single isomer, unassigned) [Hy7-18.3], the Ki under setting [1] lay in the range of 100 to 1000 nM. Still for that read-out and setting: under `CCS(=O)(=O)c1ccc(CNC(=O)c2ccc3c(c2)CCN(c2ncc(C#N)cn2)[C@@H]3C(C)C)cc1` (single isomer, unassigned) [Hy2A-1.1] stands 100 to 1000 nM; under `CCOc1cnc(N2Cc3cc(C(=O)NCc4ccc(S(=O)(=O)CC)cc4)ccc3[C@@H](C(C)C)C2)nc1` (single isomer, unassigned) [Hy7-5.2], 100 to 1000 nM; under `CC1c2ccc(C(=O)NCc3ccc(S(C)(=O)=O)cc3)cc2CCN1Cc1ccc(F)cc1` (racemic) [Hy2A-6, 2-(4-fluorobenzyl)-1-methyl-N-(4-(methylsulfonyl)benzyl)-1,2,3,4-tetrahydroisoquinoline-6-carboxamide], over 1000 nM. Still for that read-out and setting: under `CCOC(=O)c1cnc(N2Cc3cc(C(=O)N[C@@H](CO)c4ccc(S(=O)(=O)CC)cc4)ccc3[C@@H](CC)C2)nc1` (single isomer, unassigned) [Hy7-34.2] stands under 100 nM; under `CCS(=O)(=O)c1ccc(CNC(=O)c2ccc3c(c2)CN(c2ncc(N4CCOCC4)cn2)C[C@@H]3C(C)C)cc1` (single isomer, unassigned) [Hy7-19.2], over 1000 nM; under `CCC1CN(C2CCC(C(F)(F)F)CC2)Cc2cc(C(=O)NC(CO)c3ccc(S(=O)(=O)CC)cc3)ccc21` (single isomer, unassigned) [Hy7-35.3], under 100 nM. Consider `CCS(=O)(=O)c1ccc(CNC(=O)c2cnc3c(c2)CCN(c2ncc(Cl)cn2)[C@@H]3C(C)C)cc1` (single isomer, unassigned) [Hy2B-2.2], for which, under setting [2], the Ki was over 1000 nM. For `CCS(=O)(=O)c1ccc(CNC(=O)c2ccc3c(c2)CCN(Cc2ncc(Br)cn2)[C@@H]3C(C)C)cc1` (single isomer, unassigned) [Hy2A-26.2], under setting [1], the Ki was in the range of 100 to 1000 nM. The same measure, in the same setting: the same measure for `CC[C@@H]1CN(C2CCOCC2)Cc2cc(C(=O)N[C@@H](CO)c3ccc(S(=O)(=O)CC)cc3)ccc21` (single isomer, unassigned) [Hy7-30.1]: 100 to 1000 nM. As to `CCOC(=O)c1cnc(N2CCc3cc(C(=O)NCc4ccc(S(=O)(=O)CC)cc4)cnc3[C@H]2C(C)C)nc1C(F)(F)F` (single isomer, unassigned) [Hy2B-5.1], the Ki under setting [2] fell in the range of 100 to 1000 nM. Still for that read-out and setting: the same measure for `CCS(=O)(=O)c1ccc(CNC(=O)c2cnc3c(c2)CCN(c2ncc(Cl)cn2)[C@H]3C(C)C)cc1` (single isomer, unassigned) [Hy2B-2.1]: 100 to 1000 nM. Consider `CCOC(=O)c1cnc(N2CCc3cc(C(=O)NCc4ccc(S(=O)(=O)CC)cc4)ccc3[C@H]2C(C)C)nc1C(F)(F)F` (single isomer, unassigned) [Hy2A-5.2], for which the Ki under setting [1] lay within 100 to 1000 nM.

For the molecule `CCS(=O)(=O)c1ccc(CNC(=O)c2cnc3c(c2)CCN(c2ncc(C#N)cn2)[C@@H]3C(C)C)cc1` (single isomer, unassigned) [Hy2B-1.2], the Ki under setting [2] is over 1000 nM. Turning to `CCS(=O)(=O)c1ccc(CNC(=O)c2ccc3c(c2)CCN(Cc2ccc(C#N)cc2)[C@@H]3C(C)C)cc1` (single isomer, unassigned) [Hy2A-15.2], the Ki under setting [1] is under 100 nM. The same measure, in the same setting: the same measure for `CCS(=O)(=O)c1ccc(CNC(=O)c2ccc3c(OC[C@H]4CC[C@H](C(F)(F)F)CC4)cc(C)nc3c2)cc1` [Hy1B-2, N-(4-(ethylsulfonyl)benzyl)-2-methyl-4-(((1r,4r)-4-(trifluoromethyl)cyclohexyl)methoxy)quinoline-7-carboxamide]: 100 to 1000 nM. As for `CCS(=O)(=O)c1ccc(CNC(=O)c2cnc3c(c2)CCN(Cc2ccc(Cl)cc2)C3C(C)C)cc1` (single isomer, unassigned) [Hy2B-8.2], the Ki under setting [2] was 100 to 1000 nM. Regarding `CCS(=O)(=O)c1ccc(CNC(=O)c2ccc3c(c2)CN(c2ncc(-c4ccnc(OC)c4)cn2)C[C@@H]3C(C)C)cc1` (single isomer, unassigned) [Hy7-23.2], under setting [1], the Ki fell in the range of 100 to 1000 nM.

As to `CCC1c2ccc(C(=O)NC(CO)c3ccc(S(=O)(=O)CC)cc3)cc2CCN1CC1CCC(C(F)(F)F)CC1` (single isomer, unassigned) [Hy2A-28.3], the Ki under setting [1] is 100 to 1000 nM. On the same count and under the same terms, under `CCS(=O)(=O)c1ccc([C@H](CO)NC(=O)c2cnc3c(C4CC4)n(C[C@H]4CC[C@H](C(F)(F)F)CC4)nc3c2)nc1` [Hy3B-4, 3-cyclopropyl-N-((R)-1-(5-(ethylsulfonyl)pyridin-2-yl)-2-hydroxyethyl)-2-(((1r,4R)-4-(trifluoromethyl)cyclohexyl)methyl)-2H-pyrazolo[4,3-b]pyridine-6-carboxamide] stands under 100 nM; under `CC1c2ccc(C(=O)NCc3ccc(S(C)(=O)=O)cc3)cc2CCN1Cc1ccc(C#N)cc1` (racemic) [Hy2A-7, 2-(4-cyanobenzyl)-1-methyl-N-(4-(methylsulfonyl)benzyl)-1,2,3,4-tetrahydroisoquinoline-6-carboxamide], over 1000 nM.

With `CC[C@H]1CN(C2CCC(F)(F)CC2)Cc2cc(C(=O)N[C@@H](CO)c3ccc(S(=O)(=O)CC)cc3)ccc21` (single isomer, unassigned) [Hy7-32.2], the Ki under setting [1] was 100 to 1000 nM. `CC[C@@H]1CN(c2ncc(C(F)(F)F)cn2)Cc2cc(C(=O)NCc3ccc(S(=O)(=O)CC)cn3)ccc21` (single isomer, unassigned) [Hy7-10.2]: the Ki under setting [1] is 100 to 1000 nM. In the case of `CC[C@H]1CN(c2ncc(C(F)(F)F)cc2C#N)Cc2cc(C(=O)N[C@@H](CO)c3ccc(S(=O)(=O)CC)cc3)ccc21` (single isomer, unassigned) [Hy7-37.2], the Ki under setting [1] was under 100 nM. In the case of `CCS(=O)(=O)c1ccc(CNC(=O)c2c[nH]c3c(OC[C@H]4CC[C@H](C(F)(F)F)CC4)nccc23)cc1` [Hy5-2, N-(4-(ethylsulfonyl)benzyl)-7-(((1r,4r)-4-(trifluoromethyl)cyclohexyl)methoxy)-1H-pyrrolo[2,3-c]pyridine-3-carboxamide], under setting [1], the Ki was 100 to 1000 nM.

Turning to `CC[C@H]1CN(c2ncc(-c3cccc(OC)n3)cn2)Cc2cc(C(=O)NCc3ccc(S(=O)(=O)CC)cc3)ccc21` (single isomer, unassigned) [Hy7-20.2], the Ki under setting [1] lay in the range of 100 to 1000 nM. Still for that read-out and setting: under `CCS(=O)(=O)c1ccc(CNC(=O)c2ccc3c(c2)C(C)(C)CN(Cc2cnc(C)cn2)[C@@H]3C(C)C)cc1` (single isomer, unassigned) [Hy2A-22.2] stands 100 to 1000 nM.

For the molecule `CCS(=O)(=O)c1ccc(CNC(=O)c2cnc3c(c2)CCN(C[C@H]2CC[C@H](C(F)(F)F)CC2)[C@@H]3C(C)C)nc1` (single isomer, unassigned) [Hy2B-10.2], the Ki under setting [2] lay in the range of 100 to 1000 nM. Still for that read-out and setting: the same measure for `CCOC(=O)c1cnc(N2CCc3cc(C(=O)NCc4ccc(S(=O)(=O)CC)cc4)cnc3[C@@H]2C(C)C)nc1` (single isomer, unassigned) [Hy2B-4.2]: over 1000 nM; for `CCS(=O)(=O)c1ccc(CNC(=O)c2cnc3c(c2)CCN(Cc2ccc(F)cc2)C3C(C)C)cc1` (single isomer, unassigned) [Hy2B-6.2]: 100 to 1000 nM; for `CCS(=O)(=O)c1ccc(CNC(=O)c2cnc3c(c2)CCN(c2ncc(C(F)(F)F)cn2)[C@@H]3C(C)C)cc1` (single isomer, unassigned) [Hy2B-3.2]: 100 to 1000 nM. Take `CCS(=O)(=O)c1ccc([C@H](CO)NC(=O)c2ccc3c(OC[C@H]4CC[C@H](C(F)(F)F)CC4)cc(C)nc3c2)cc1` [Hy1B-4, N-((R)-1-(4-(ethylsulfonyl)phenyl)-2-hydroxyethyl)-2-methyl-4-(((1r,4R)-4-(trifluoromethyl)cyclohexyl)methoxy)quinoline-7-carboxamide]: the Ki under setting [1] lay in the range of 100 to 1000 nM.

`CCOC(=O)c1cnc(N2CCc3cc(C(=O)NCc4ccc(S(=O)(=O)CC)cc4)ccc3[C@H]2C(C)C)nc1` (single isomer, unassigned) [Hy2A-4.2]: the Ki under setting [1] was 100 to 1000 nM. Same read-out and setting: the same measure for `CCS(=O)(=O)c1ccc(CNC(=O)c2ccc3c(c2)CCN(Cc2ncc(C)cn2)[C@@H]3C(C)C)cc1` (single isomer, unassigned) [Hy2A-12.2]: over 1000 nM.
